# Reference: patent US8785614B2, “Aberrantly methylated genes in pancreatic cancer” (The Johns Hopkins University, priority 2003, dated 2014)
# How the values were obtained:
# [1] = test system: Panc1 pancreatic cancer cell line; test: Oligonucleotide microarray gene expression after TSA (1 μM, 24 h) vs mock; type: cell-based, human
# Source text: (§1) These include a large panel of novel targets for silencing by histone deacetylation including several known tumor suppressor genes or cell cycle-regulatory genes (ING1, p57KIP2, CHES1, CHFR, GADD45B, and others).
# [2] = test system: Hs766T pancreatic cancer cell line; test: as above; type: cell-based, human
# Source text: as §1
compound,measurement,setting,value
"CC(/C=C/C(=O)NO)=C\[C@@H](C)C(=O)c1ccc(N(C)C)cc1 [TSA, trichostatin A]",Fold-change after TSA treatment,"[1]; ADM, Panc1",3.22 fold
same,Fold-change after TSA treatment,"[1]; ANGPT1, Panc1",−1.13 fold
same,Fold-change after TSA treatment,"[1]; AREG, Panc1",4.2 fold
same,Fold-change after TSA treatment,"[1]; ATF3, Panc1",2.74 fold
same,Fold-change after TSA treatment,"[1]; BIK, Panc1",5.02 fold
same,Fold-change after TSA treatment,"[1]; CACNA1G, Panc1",10.14 fold
same,Fold-change after TSA treatment,"[1]; CAPN5, Panc1",5.41 fold
same,Fold-change after TSA treatment,"[1]; CDH8, Panc1",6.85 fold
same,Fold-change after TSA treatment,"[1]; CDKN1C, Panc1",6.26 fold
same,Fold-change after TSA treatment,"[1]; CGR11, Panc1",11.66 fold
same,Fold-change after TSA treatment,"[1]; CHES1, Panc1",9.31 fold
same,Fold-change after TSA treatment,"[1]; CHFR, Panc1",−1.33 fold
same,Fold-change after TSA treatment,"[1]; CLDN15, Panc1",8.69 fold
same,Fold-change after TSA treatment,"[1]; EDR1, Panc1",−2.06 fold
same,Fold-change after TSA treatment,"[1]; EGR4, Panc1",6.44 fold
same,Fold-change after TSA treatment,"[1]; EREG, Panc1",−1.37 fold
same,Fold-change after TSA treatment,"[1]; GADD45B, Panc1",−1.09 fold
same,Fold-change after TSA treatment,"[1]; GAGE1, Panc1",0.63 fold
same,Fold-change after TSA treatment,"[1]; GAGE2, Panc1",1.4 fold
same,Fold-change after TSA treatment,"[1]; GAGE3, Panc1",1.07 fold
same,Fold-change after TSA treatment,"[1]; GAGE4, Panc1",2.29 fold
same,Fold-change after TSA treatment,"[1]; GAGE6, Panc1",1.62 fold
same,Fold-change after TSA treatment,"[1]; GAGE7B, Panc1",3.56 fold
same,Fold-change after TSA treatment,"[1]; HEP27, Panc1",31.64 fold
same,Fold-change after TSA treatment,"[1]; HMOX1, Panc1",1.21 fold
same,Fold-change after TSA treatment,"[1]; HPSE, Panc1",3.03 fold
same,Fold-change after TSA treatment,"[1]; ID2, Panc1",21.22 fold
same,Fold-change after TSA treatment,"[1]; ING1, Panc1",1.5 fold
same,Fold-change after TSA treatment,"[1]; KLK12, Panc1",2.13 fold
same,Fold-change after TSA treatment,"[1]; MAGE1, Panc1",15.48 fold
same,Fold-change after TSA treatment,"[1]; MBD1, Panc1",−1.82 fold
same,Fold-change after TSA treatment,"[1]; MMP1, Panc1",−2.63 fold
same,Fold-change after TSA treatment,"[1]; NGFR, Panc1",30.7 fold
same,Fold-change after TSA treatment,"[1]; NOTCH3, Panc1",3.9 fold
same,Fold-change after TSA treatment,"[1]; P-glycoprotein (mdr1), Panc1",3.69 fold
same,transcripts with marked induction,[1]; Panc1,459 transcripts
same,"transcripts with marked induction, share of transcripts analyzed",[1]; Panc1 (printed Panel),2.5%
same,Fold-change after TSA treatment,"[1]; SPANXA1, Panc1",6.45 fold
same,Fold-change after TSA treatment,"[1]; STC1, Panc1",5.63 fold
same,Fold-change after TSA treatment,"[1]; UCPH, Panc1",2.05 fold
same,Fold-change after TSA treatment,"[1]; ULBP2, Panc1",18.25 fold
same,Fold-change after TSA treatment,"[1]; WNT4, Panc1",5.13 fold
same,Fold-change after TSA treatment,"[1]; candidate tumor suppressor gene 21 protein (AF040708), Panc1",1.01 fold
same,Fold-change after TSA treatment,"[1]; connective tissue growth factor (M92934), Panc1",7.69 fold
same,Fold-change after TSA treatment,"[1]; hemoglobin, alpha 1 (HBAI), Panc1",4.55 fold
same,Fold-change after TSA treatment,"[1]; interleukin 8, Panc1",3.01 fold
same,Fold-change after TSA treatment,"[1]; member 2 (BC002649), Panc1",5.04 fold
same,Fold-change after TSA treatment,"[1]; period homolog 1 (PERI), Panc1",−3.83 fold
same,Fold-change after TSA treatment,"[1]; prostate differentiation factor (AF003934), Panc1",4.05 fold
same,Fold-change after TSA treatment,"[1]; protease inhibitor 12 (neuroserpin) (SERPINU), Panc1",11.7 fold
same,Fold-change after TSA treatment,"[1]; synovial sarcoma, X breakpoint 1 (BC001003), Panc1",2.73 fold
same,Fold-change after TSA treatment,"[1]; tissue factor pathway inhibitor-2 (L27624), Panc1",34.65 fold
same,Fold-change after TSA treatment,"[2]; ADM, Hs766T",1.86 fold
same,Fold-change after TSA treatment,"[2]; ANGPT1, Hs766T",6.72 fold
same,Fold-change after TSA treatment,"[2]; AREG, Hs766T",2.02 fold
same,Fold-change after TSA treatment,"[2]; ATF3, Hs766T",1.73 fold
same,Fold-change after TSA treatment,"[2]; BIK, Hs766T",2.35 fold
same,Fold-change after TSA treatment,"[2]; CACNA1G, Hs766T",2.72 fold
same,Fold-change after TSA treatment,"[2]; CAPN5, Hs766T",1.06 fold
same,Fold-change after TSA treatment,"[2]; CDH8, Hs766T",−1.11 fold
same,Fold-change after TSA treatment,"[2]; CDKN1C, Hs766T",6.57 fold
same,Fold-change after TSA treatment,"[2]; CGR11, Hs766T",1.82 fold
same,Fold-change after TSA treatment,"[2]; CHES1, Hs766T",−1.11 fold
same,Fold-change after TSA treatment,"[2]; CHFR, Hs766T",8 fold
same,Fold-change after TSA treatment,"[2]; CLDN15, Hs766T",−1.81 fold
same,Fold-change after TSA treatment,"[2]; EDR1, Hs766T",−1.26 fold
same,Fold-change after TSA treatment,"[2]; EGR4, Hs766T",6.49 fold
same,Fold-change after TSA treatment,"[2]; EREG, Hs766T",7.43 fold
same,Fold-change after TSA treatment,"[2]; GADD45B, Hs766T",2.01 fold
same,Fold-change after TSA treatment,"[2]; GAGE1, Hs766T",14.57 fold
same,Fold-change after TSA treatment,"[2]; GAGE2, Hs766T",432.64 fold
same,Fold-change after TSA treatment,"[2]; GAGE3, Hs766T",184.93 fold
same,Fold-change after TSA treatment,"[2]; GAGE4, Hs766T",234.36 fold
same,Fold-change after TSA treatment,"[2]; GAGE6, Hs766T",237.45 fold
same,Fold-change after TSA treatment,"[2]; GAGE7B, Hs766T",331.97 fold
same,Fold-change after TSA treatment,"[2]; H1 historic family, member 2 (BC002649), Hs766T",5.8 fold
same,Fold-change after TSA treatment,"[2]; HEP27, Hs766T",1631 fold
same,Fold-change after TSA treatment,"[2]; HMOX1, Hs766T",2.56 fold
